This note sets out measurements from patent US9790233B2, “Compositions and methods of modulating 15-PGDH activity” (CASE WESTERN RESERVE UNIVERSITY, priority 2012, dated 2017).

The structures appear in SMILES notation. Where two headings read alike, the source gives them in different places.

Type in all cases: cell-based
In assay [1] the test system is 15-PGDH luciferase fusion construct in LS174T reporter cell line. The experiment in a line: 15-PGDH-luciferase fusion gene reporter induction, LS174T cells. As to conditions: Homo sapiens.
For assay [2], the system named is 15-PGDH luciferase fusion construct in V9m reporter cell line. The assay can be described thus: 15-PGDH-luciferase fusion gene reporter induction, V9m cells.
Assay [3] deals with 15-PGDH luciferase fusion construct in Vaco503 reporter cell line. The experiment in a line: 15-PGDH-luciferase fusion gene reporter induction, V503 cells. As to conditions: read-out: V503-3H9-7 reporter activity, % ([…]), […], Table 18.
[4] abbreviates: read-out: Ls174T-SC1 reporter activity, % ([…]), […], Table 18, read-out: Ls174T-SC1 reporter activity, % (2.5 μM).
[5] abbreviates: read-out: Ls174T-SC1 reporter activity, % ([…]), […], Table 18, read-out: Ls174T-SC1 reporter activity, % (7.5 μM).
[6] abbreviates: read-out: V9M-SC3 Reporter activity ([…]) (%), […], Table 18, read-out: V9M-SC3 Reporter activity (2.5 μM) (%).
[7] abbreviates: read-out: V503-3H9-7 reporter activity, % (2.5 μM).
The mark [8] stands for this setting: read-out: V503-3H9-7 reporter activity, % (7.5 μM).
[9] abbreviates: V9m reporter cells, […] compound, % induction of luciferase activity over basal level.

Turning to `COc1ccc(N(CC(=O)Nc2cccnc2)S(=O)(=O)c2ccccc2)c(OC)c1` [310875−38−8], the activation at […] in assay [1] (setting [4]) was 27.7%; in assay [1] (setting [5]), 102%; in assay [2] (setting [6]) it was -8.72%; in assay [3] (setting [7]), 64.1%; in assay [3] (setting [8]), 148%.
For `COc1ccc(Cl)cc1N(CC(=O)Nc1cccnc1)S(=O)(=O)c1ccccc1` [328012−52−8], the activation at […] in assay [1] (setting [4]) is 128%; in assay [1] (setting [5]), 176%; in assay [2] (setting [6]), -15.4%; in assay [3] (setting [7]), 243%; in assay [3] (setting [8]), -4.89%.
`O=C(CN(c1ccccc1)S(=O)(=O)c1ccccc1)Nc1cccnc1` [331727−07−2]: the activation at […] in assay [1] (setting [4]) is -7.53%; in assay [1] (setting [5]) it was 9.47%; in assay [2] (setting [6]), 28.2%; in assay [3] (setting [7]), 8.13%; in assay [3] (setting [8]), 1.14%.
On to `COc1ccc(OC)c(N(CC(=O)NC2CCCCC2)S(=O)(=O)c2ccccc2)c1` [333446-93-8], for which the activation at […] in assay [1] (setting [4]) is 12.9%; in assay [1] (setting [5]), 13.5%; in assay [2] (setting [6]), 16.5%; in assay [3] (setting [7]) it was 53.8%; in assay [3] (setting [8]), 44.1%.
On to `COC(=O)c1ccccc1NC(=O)CN(c1cc(OC)ccc1OC)S(=O)(=O)c1ccccc1` [333449-58-4], for which the activation at […] in assay [1] (setting [4]) is -5.9%; in assay [1] (setting [5]), -3.99%; in assay [2] (setting [6]), 6.5%; in assay [3] (setting [7]) it was 50.1%; in assay [3] (setting [8]), 20.7%.
In the case of `COc1cccc(N(CC(=O)Nc2cccnc2)S(=O)(=O)c2ccccc2)c1` [335392−39−7], the activation at […] was -0.54% in assay [1] (setting [4]); 14.3% in assay [1] (setting [5]); -12.8% in assay [2] (setting [6]); 18.9% in assay [3] (setting [7]); 21.9% in assay [3] (setting [8]).
With `COc1ccc(OC)c(N(CC(=O)Nc2ccc(Cl)cc2)S(=O)(=O)c2ccccc2)c1` [339589-53-6], the activation at […] in assay [1] (setting [4]) is 51.2%; in assay [1] (setting [5]) it was 89.7%; in assay [2] (setting [6]), -1%; in assay [3] (setting [7]), 200%; in assay [3] (setting [8]), 105%.
As for `COc1ccc(OC)c(N(CC(=O)Nc2ccc(Cl)c(Cl)c2)S(=O)(=O)c2ccccc2)c1` [339589-55-8], the activation at […] in assay [1] (setting [4]) was -5.54%; in assay [1] (setting [5]) it was 8.81%; in assay [2] (setting [6]) it was -7%; in assay [3] (setting [7]) it was 64%; in assay [3] (setting [8]), 52.5%.
Regarding `COc1ccccc1N(CC(=O)Nc1cccnc1)S(=O)(=O)c1ccccc1` [367929−80−4], the activation at […] in assay [1] (setting [4]) is 18.8%; in assay [1] (setting [5]) it was -18%; in assay [2] (setting [6]), -27.8%; in assay [3] (setting [7]), -0.87%; in assay [3] (setting [8]) it was -6.22%.
On to `COc1ccc(N(CC(=O)Nc2cccnc2)S(=O)(=O)c2ccccc2)cc1` [418783−65−0], for which the activation at […] was -12.6% in assay [1] (setting [4]); 5.81% in assay [1] (setting [5]); 0.51% in assay [2] (setting [6]); 11.6% in assay [3] (setting [7]); 6.68% in assay [3] (setting [8]).
Turning to `COc1ccc(OC)c(N(CC(=O)Nc2ccc(F)cc2)S(=O)(=O)c2ccccc2)c1` [426231-26-7], the activation at […] turned out to be 16.2% in assay [1] (setting [4]); 22.1% in assay [1] (setting [5]); 10% in assay [2] (setting [6]); 64% in assay [3] (setting [7]); 113% in assay [3] (setting [8]).
As for `CCOc1ccc(N(CC(=O)Nc2cccnc2)S(=O)(=O)c2ccccc2)cc1` [428473−22−7], the activation at […] is -15.5% in assay [1] (setting [4]); 10.6% in assay [1] (setting [5]); -17.9% in assay [2] (setting [6]); 19.1% in assay [3] (setting [7]); 19.8% in assay [3] (setting [8]).
Regarding `Nc1c(C(=O)Cc2ccccc2)sc2nc(-c3cccs3)cc(-c3ccccc3)c12` [SW033292], in assay [2] (read-out: V9M reporter activity ([…]), […], % increased luciferase activity over basal level, 100 = doubling, read-out: V9M reporter activity (2.5 uM)), the activation at […] was 1.51%.
Consider `COc1ccc(OC)c(N(CC(=O)Nc2cncc(Cl)c2)S(=O)(=O)c2ccccc2)c1` [SW202990], for which, in assay [2] (setting [9]), the “V9M-SC3 Reporter activity ([…]) (%)” value was 3.57% and the “V9M-SC3 Reporter activity ([…]), %” value is given as 23.49%.
